Source: article PMC8986608 (Journal of the American Chemical Society, 2022)

Molecular target: ScoE (Streptomyces coeruleorubidus, UniProt A0A3B6UEU3)
Conditions: alpha-KG, Fe(II)

Q: For `C[C@H](CC(=O)O)/N=C/C(=O)O` [compound 2, imine CABA], which Km is on record?
A: The Km was 369 ± 40 µM.
